This note sets out measurements from patent US11376307B2, “Compositions and methods of treating cancer with glycomimetic peptides” (SUSAVION BIOSCIENCES, INC., priority 2018, dated 2022).

Entries after “also recorded” stand apart in the source; their conditions may differ. Positions of bridges follow the written chain, without caps; N, C: chain ends. Chains are numbered I, II in the order given.

The test system of series [1] is peritoneal immune cells. Briefly: Expansion of peritoneal cells after subcutaneous injection, flow cytometry. The following applies: for Change in mature, active peritoneal immune cell populations: 1 nmol/g s.c. on days 0, 2, 4, cells 24 h after each injection. The format is in vivo, C57BL/6 mice. On the procedure:
FIGS. 7A-7D. Expansion of peritoneal cells in C57BL/6 mice. Mice were injected subcutaneously at a dose of 1 nmol/g body weight of svL4, sv6D or svC1. Cells in each population recovered in a peritoneal lavage are expressed as cell counts (in thousands). Cells from three mice in each treatment group were pooled for analysis. The number of cells in each population was normalized to the average recovery of total cells from all groups. For each cell type, the left-hand, middle and right-hand set of bars represent samples from mice treated with svL4, sv6D or svC1, respectively. Mice were injected on days 0, 2 and 4, and cells were collected 24 h after each injection. Day 1, open bar; day 3, grey bar; day 5, black bar. Populations that express activation markers are indicated by an asterisk.
Flow Cytometry Healthy C57BL/6 male mice, 10 weeks old, were injected subcutaneously with peptides on alternate days. Peritoneal cells were isolated from mice 24 h after dosing by injecting ice cold PBS (containing 3% FBS) into the peritoneal cavity, gently massaging the abdomen, and then collecting the fluid, which was transferred into K2EDTA-treated tubes for evaluation of specific biomarkers. Cells from three mice in each group were pooled, counted and divided among FACS tubes (1×10^6 cells per tube). Cells were washed once in PBS containing 3% FBS, then stained with 0.25 to 1 μg of fluorescently conjugated antibody per 10^6 cells in 100 μL of buffer as recommended by the manufacturer (Table 1).
Cells were incubated with the antibodies for 30 min at 4° C. in the dark. Following staining, the cells were washed two times with PBS/3% FBS and immediately analyzed with a MACSQuant flow cytometer (Miltenyi Biotech, Inc., San Diego, Calif.). Compensation was performed using single stain tubes for each color present in the analysis as well as an unstained control sample. Collection of flow cytometric data and analysis with FlowJo software, version 10.0.6 (FlowJo, LLC, Ashland, Oreg.) were performed by Biomodels LLC (Watertown, Mass.).
To examine whether increases occurred in mature immune cells, peritoneal cells from Balb/c and C57BL/6 mice were analyzed by flow cytometry after cells were stained with the markers listed in Table 1. […] To explore this observation more extensively, svL4 or sv6D was injected into C57BL/6 mice on day 0, 2 or 4. Peritoneal cells were examined by flow cytometry 24 h after each injection. Shown in FIGS. 7A-7D are results expressed as cell counts for F4/80 CD11b CD86 (mature, active macrophages); CD11c (DCs); CD11c CD86 (activated DCs); CD4 CD69 (activated T cells); CD8 CD69 (activated cytotoxic T cells); NK1.1 CD3^+ CD69 (activated NKT cells); NK1.1 CD3^− CD69 (activated NK cells); CD19 (B cells); and CD19 CD73 CD80 CD273 (memory B cells). The numbers of these mature, activated cells continued to increase with each injection.

Series [2] in a line: Antigenicity assay of mouse sera. Further details: species or system mice. Particulars: alternate-day injections for 3 months, 1 nmol/g. As for the experimental part: FIG. 10. Test for antigenicity of svL4 and sv6D. Anti-sera were generated in rabbits against KLH-conjugates of the sequences of svL4 or sv6D and diluted 1:10. Mouse sera were collected after alternate-day injections of svL4 over 3 months, diluted 1:1 with PBS and added to protein-A/G-coated wells. Biotinylated svL4 or sv6D was added to wells and bound peptide was detected with a streptavidin-peroxidase conjugate. The figure includes average values for sera from 8 treated mice in each group assayed separately.
Antigenicity Assay The sequence of one arm of svL4 or sv6D was conjugated to keyhole limpet hemocyanin (KLH) and injected into rabbits at two-week intervals (total of 3 injections) (New England Peptide, Inc., Gardner, Mass.). Two weeks after the final injection, sera were prepared. Mice were injected with a peptide every other day over a period of 3 months (total ˜45 injections), blood was then collected by cardiac puncture and sera were prepared. Rabbit serum was diluted 1:10, whereas mouse serum was diluted 1:1 or 1:5 with PBS containing 0.05% Tween-20 (PBST). Sera were incubated in microtiter wells coated with protein A/G (Pierce) for 90 min. The wells were washed three times with PBST, and then incubated with 50 μL of 1 μM biotinylated svL4 or sv6D for 1 h. […]

The nature of series [3]: Serum cytokine array (L-308) in healthy mice. The class given is in vivo, Balb/c mice. Particulars: svL4 s.c., 4 h, separate experiment. As for the experimental part: Ratios of treated vs. untreated samples obtained in a separate experiment with healthy Balb/c mice are shown in the right-hand column of Table 2 for comparison. The most significant increase in the serum of healthy mice treated with the peptide was in the amount of soluble HVEM (Herpes virus entry mediator, also designated TNFRSF14), which was a prominent protein in serum and increased approximately 10-fold within 4 h after treatment. In the tumor-bearing mice, the level of soluble HVEM in treated animals was similar to that in treated healthy mice, but the level in untreated animals was higher than that in healthy control mice.

Series [4] has as its system CD4 and CD8 T cells. Briefly: In vitro challenge of T cells from mice injected with sv6D-MOG. The following applies: mice injected weekly x2 with 0.1 nmol/g; 72 h incubation. The format is cell-based, C57BL/6 mice. As for the experimental part: FIGS. 11A-11B. Activation of T cells by sv6D-antigen conjugate. IFN-γ (FIG. 11A) and IL-2 (FIG. 11B) production upon in vitro challenge of T cells after weekly injections of sv6D or sv6D-MOG (MOG=myelin oligodendrocyte glycoprotein35-55) into C57BL/6 mice. One week after the second injection, spleen and right inguinal lymph node tissue were combined and homogenized to allow isolation of CD4 and CD8 T cells, which were mixed with non-T cell antigen presenting cells, and incubated 72 h with PBS, sv6D or sv6D-MOG. PMA (phorbol 12-myristate 13-acetate) and I (ionomycin) were added as positive controls. Activation of CD8^+ T cells indicated cross-presentation of the antigen to the cytosol of dendritic cells, mediated by sv6D.
Whereas sv6D is not antigenic in the mouse (FIG. 10), it is important to determine whether the peptide gains access to the cytosol of DCs. To test whether sv6D could initiate a TH1 response and activate CD8^+ T cells, a fragment of the myelin oligodendrocyte glycoprotein (MOG35-55) was attached to the C-terminus of sv6D and injected into mice. One week after a second weekly injection of 0.1 nmol/g peptide, CD4^+ and CD8^+ T cells were challenged in vitro with the conjugate. […] A high level of IL-2 was also released by CD4^+ T cells (FIG. 11B). These observations are typical of a strong response to vaccination and stimulation of clonal T cell proliferation. […]

As to “I: H-VQATQSNQHTPRGGGSKK-NH2 / II: H-VQATQSNQHTPRGGGSK / III: H-VQATQSNQHTPRGGGS / IV: H-VQATQSNQHTPRGGGS (amide I:17-IV:C, I:18-II:C, II:17-III:C) [svL4]”, the “Injection after which a significant increase in peritoneal cells occurred” value in series [1] (1 nmol/g s.c.) is “only after the second injection”. Moreover, the “Change in mature, active peritoneal immune cell populations” value in series [1] is given as “several-fold increases”. Moreover, in series [1] (compared with sv6D), the “Response of CD19+ B cells” value is reported as “responded more strongly”. In addition, the “Antibodies that bind the peptides in mouse sera (antigenicity)” value in series [2] is reported as “negative”. For the same substance, in series [3], the “Ratio of level of IFN-γ in sera (treated vs. untreated)” value was “no change”, the “Ratio of level of IL-1α in sera (treated vs. untreated)” value is on record as 0.86, the “Ratio of level of IL-2 in sera (treated vs. untreated)” value is “no change” and the “Ratio of level of IL-12p70 in sera (treated vs. untreated)” value is “no change”. In addition, in series [3], the “Ratio of level of IL-17 in sera (treated vs. untreated)” value is recorded as “no change”, the “Ratio of level of IL-21 in sera (treated vs. untreated)” value is “no change”, the “Ratio of level of IL-23 in sera (treated vs. untreated)” value is “no change” and the “Ratio of level of IL-27 in sera (treated vs. untreated)” value amounted to 0.55. For the same substance, in series [3], the “Ratio of level of IL-28 in sera (treated vs. untreated)” value was “no change”, the “Ratio of level of IL-31 in sera (treated vs. untreated)” value was “no change”, the “Ratio of level of Lymphotoxin-α in sera (treated vs. untreated)” value is recorded as 0.74 and the “Ratio of level of TNFα in sera (treated vs. untreated)” value is given as 0.21.

As to “I: H-NQHTPRGGGSKK-NH2 / II: H-NQHTPRGGGSK / III: H-NQHTPRGGGS / IV: H-NQHTPRGGGS (amide I:11-IV:C, I:12-II:C, II:11-III:C) [sv6D]”, the “Change in mature, active peritoneal immune cell populations” value in series [1] is reported as “several-fold increases”. In series [1] (DCs, T cells, NKT cells, days 0, 2, 4), the “Overall peritoneal cell responses compared with svL4” value is reported as “greater than those to svL4”. In addition, the “Antibodies that bind the peptides in mouse sera (antigenicity)” value in series [2] is “negative; also recorded: not antigenic”. In series [4], the “IFN-γ release by CD4+ and CD8+ T cells on in vitro challenge” value is reported as “did not induce IFN-γ release”.
